Results published in patent US6906072B1, “Piperazine compound and pharmaceutical composition containing the compound” (Eisai Co., Ltd., priority 2000, dated 2005).
Where a name gives a salt, the structure may show the parent alone.

Experiments:
[1] = system: potential dependent calcium channel; assay: Measurement of potential dependent calcium channel activity using fluorescent dye (fura2) in cerebral cortex synaptosome stimulated with KCl; format: cell-based, rat
[2] = system: rat middle cerebral artery emphraxis model; assay: Shrinking effect of infarction nidus in rat middle cerebral artery emphraxis model; format: in vivo; conditions: for volume of the infarction nidus of cerebral cortex: average value±standard error, after 24 hours; for reduction of the volume of the infarction nidus of cerebral cortex: from 30 minutes after emphraxis, vs control group, measured after 24 hours
Source text: Shrinking Effect of Infarction nidus in rat Middle Cerebral Artery Emphraxis Model (I)
A calcium ion in the cell plays an important role in the expression of various cell functions. But when the calcium ion concentration in the cell rises excessively, cell affection is induced (refer to literatures 1) and 2), hereinafter, the same as this.). For example, neural cell affection induced by excitatory amino-acid occurring in the case of cerebral ischemia provokes excessive rise of the calcium ion concentration in the cell (3) and 4)). The maintenance mechanism of membrane potential fails by excitatory amino-acid which rose in the case of local cerebral ischemia (3)), the depolarization of membrane is induced (5)), and the influx of the calcium ion into the cell through the potential dependent calcium channel is increased (6) and 7)). […] The potential dependent calcium channels existing in the neural cell are classified in 6 kinds of sub-types based on the electro-physiological and pharmacological investigation (T, L, N, P, Q and R types) (9)). Among these, N, P and Q types play an important role in the liberation of glutamic acid from rat cerebral cortex synaptosome (10) and 11)).
The compound represented by the above formula (I) according to the present invention was dissolved in a physiological saline, and appropriately prepared so as to be in doses of 1.5, 5 and 15 mg/kg/h. The concentration of the specimen was calculated based on the average body weight of an animal. Further, the average body weight was calculated by measuring the body weight of all animals which are intended to be used for experiment. For example, in the case of 5 mg/kg/h, it was calculated as: concentration of specimen=5 mg×average body weight (kg)/administration volume (0.616 ml) per hour. • (2) Manufacture of nylon embolus
The embolus made from nylon stitch (Ethicon, Inc., Somerville, N.J., USA) of 4-0 monofilament was used for emphraxis of middle cerebral artery. As the nylon embolus, that prepared by previously rounding its tip with flame, fragmenting it in a length of 25 mm, and marking at a position of 17 mm from the tip with an oily felt pen was used. • (3) Implantation of catheter for intravenous administration
The implantation of catheter for intravenous administration (Atom Vein Catheter 3Fr, manufactured by ATOM MEDICAL Co., Ltd., Tokyo) was carried out under 70% laughing gas-2% halothane anaesthesia. Catheter which was filled up with a physiological saline solution was inserted from the femoral vein of left foot. • (4) Emphraxis of middle cerebral artery
The emphraxis of middle cerebral artery was carried out in accordance with the method of Longa et al (12)). The operation was carried out under 70% laughing gas-2% halothane anaesthesia just after implanting the catheter. A rat was laid in facing upward under the stereoscopic microscope for operation, the neck was cut open, and the portion where the whole carotid arteries of the right side are diverged to the external carotid artery and the internal carotid artery was confirmed. The external carotid artery was cut off at the periphery side, and the nylon embolus was inserted from the terminal of the external carotid artery which was cut off into the internal carotid artery. The embolus was inserted up to the position where the position of 17 mm from the tip of the embolus is duplicated with a branch point of the external carotid artery and the internal carotid artery, and was fixed.
The rat was caught and lifted with the cauda after 30 minutes from the emphraxis of middle cerebral artery, an indivisual which expresses clearly the one side paralysis of a fore-leg (the paralysis of a fore-leg of the opponent side which loaded infarct) was provided for experiment as an example in which middle cerebral artery was occluded and was able to make an ischemia condition. • (6) Administration of medium and specimen […]

[3] = system: formalin test using mouse; assay: Analgesic effect in formalin test using mouse; format: in vivo; conditions: licking time for 5 minutes
Procedure: Analgesic Effect (I) in Formalin Test Using Mouse
Therefore, the analgesic effect obtained in the case where the intravenous administration of the present compound was carried out was studied in the formalin test (3)) using a mouse.
Ddy mice (male, 4 to 7 weeks age) purchased from Japan SLC Co, were used for experiment. Preliminary feeding of 4 days or more was carried out for mice (breeding condition: a room temperature 23±1° C., air humidity 55±5%, lighting cycle of every 12 hours). The mice were accommodated by a group of approximately 20 in a cage made of polycarbonate for 20 mice in which floor cloth (White Flake, Charles River Co., Ltd., Tokyo) was spread, and were bred. At the morning of the day tested, they were moved to a laboratory. They were freely fed MF (Oriental Yeast Co., Tokyo) as a feed. Further, they drunk city water freely. […]
10 mg/kg of the present compound was intravenously administered via tail vein, 30 mg/kg of morphine was orally administered and 10 mg/kg of indomethacin was orally administered. […] Just after the administration of formalin, the licking time of an action in which a mouse licked his left hind leg was measured for 5 minutes, and it was made as an index of pain. […] Setting the licking time of the control as 100%, the suppression rate (%) of the present compound was calculated by the following calculation formula. […]

formalin test = conditions: administration in spinal cord, literature reports, result in words; cited from earlier work
[4] = system: rat local cerebral ischemia model; conditions: literature reports, result in words; cited from earlier work
[5] = system: T1, potential dependent calcium channel; conditions: 1 μM; cited from earlier work
T1 construct: other: 1 μM

COc1ccc(CCN(C)CCCC(C#N)(c2ccc(OC)c(OC)c2)C(C)C)cc1OC (centres unmarked) [Control, verapamil hydrochloride]
IC50 [1]: > 16 µM

CC(C)C(C#N)(CCCN1CCN(CCOc2cccc(C#N)c2)CC1)c1ccc(C#N)s1 (centres unmarked) [Example 70]
volume of the infarction nidus of cerebral cortex ([2]; 1.5 mg/kg/h intravenous): 128.9±12.5 mm^3
reduction of the volume of the infarction nidus of cerebral cortex ([2]; 1.5 mg/kg/h intravenous): 4%
volume of the infarction nidus of cerebral cortex ([2]; 5 mg/kg/h intravenous): 108.0±14.9 mm^3
reduction of the volume of the infarction nidus of cerebral cortex ([2]; 5 mg/kg/h intravenous): 20%
volume of the infarction nidus of cerebral cortex ([2]; 15 mg/kg/h intravenous): 75.7±11.2 mm^3
reduction of the volume of the infarction nidus of cerebral cortex ([2]; 15 mg/kg/h intravenous): 44%

CC(C)C(C#N)(CCCN1CCN(CCOc2cccc(C#N)c2)CC1)c1cccs1 (centres unmarked) [Example 75]
volume of the infarction nidus of cerebral cortex ([2]; 1.5 mg/kg/h intravenous): 119.9±12.6 mm^3
reduction of the volume of the infarction nidus of cerebral cortex ([2]; 1.5 mg/kg/h intravenous): 26%
volume of the infarction nidus of cerebral cortex ([2]; 5 mg/kg/h intravenous): 102.0±14.1 mm^3
reduction of the volume of the infarction nidus of cerebral cortex ([2]; 5 mg/kg/h intravenous): 37%
volume of the infarction nidus of cerebral cortex ([2]; 15 mg/kg/h intravenous): 83.7±21.3 mm^3
reduction of the volume of the infarction nidus of cerebral cortex ([2]; 15 mg/kg/h intravenous): 49%

CC(C)N(CCN1CCN(CCCC(C#N)(c2cccs2)C(C)C)CC1)c1ccccn1 (centres unmarked) [Example 189, 1-[4-cyano-4-(2-thienyl)-5-methylhexyl]-4-[2-{N-isopropyl-N-(2-pyridyl)amino]ethyl}Piperazine]
suppression rate of licking time ([3]; 10 mg/kg intravenously, formalin 5 minutes after administration): 59%

CSCC[C@@H]1NC(=O)[C@H](CC(C)C)NC(=O)[C@H](CCCNC(=N)N)NC(=O)[C@H](CO)NC(=O)[C@@H]2CSSC[C@@H]3NC(=O)[C@H](CO)NC(=O)CNC(=O)[C@H]([C@@H](C)O)NC(=O)[C@H](CSSC[C@H](N)C(=O)N[C@@H](CCCCN)C(=O)NCC(=O)N[C@@H](CCCCN)C(=O)NCC(=O)N[C@@H](C)C(=O)N[C@@H](CCCCN)C(=O)N2)NC(=O)[C@H](CSSC[C@@H](C(N)=O)NC(=O)[C@H](CCCCN)NC(=O)CNC(=O)[C@H](CO)NC(=O)[C@H](CCCNC(=N)N)NC3=O)NC(=O)[C@H](CC(=O)O)NC(=O)[C@H](Cc2ccc(O)cc2)NC1=O [SNX-111]
analgesic action in the formalin test (formalin test): exhibits an analgesic action
protection of neural cells in rat local cerebral ischemia model [4]: protected the liberation of glutamic acid from cerebral cortex and subsequent neural cell affection

CN1CC[C@]23c4c5ccc(O)c4O[C@H]2[C@@H](O)C=C[C@H]3[C@H]1C5 [morphine, reference compound]
suppression rate of licking time ([3]; 30 mg/kg orally, formalin 30 minutes after administration): 54%

n-conotoxin GVIA
inhibition against the Ca2+ influx [5]: 18%

w-Agatoxin-IVA
inhibition against the Ca2+ influx [5]: 64%

ω-agatoxin IVA
protection of neural cells in rat local cerebral ischemia model [4]: exhibited a protective action for neural cell
